Molecular target: T1, serotonin (5-HT) reuptake (Rattus norvegicus, UniProt P31652)
T1 construct: synaptosomes are freshly isolated from areas of the rat brain; from tissue; host or cells: rat brain synaptosomes (P2 fraction)
Assay: Inhibition of serotonin (5HT) reuptake in synaptosomes from rat brain
Format: biochemical
Settings: test concentration of 10 μM
How it was run: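 Compounds screened at 10 μM and reported as percent inhibition of serotonin uptake. Uptake measured in a freshly prepared P2 synaptosomal fraction from rat brain.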

T1 sequence (P31652 whole entry): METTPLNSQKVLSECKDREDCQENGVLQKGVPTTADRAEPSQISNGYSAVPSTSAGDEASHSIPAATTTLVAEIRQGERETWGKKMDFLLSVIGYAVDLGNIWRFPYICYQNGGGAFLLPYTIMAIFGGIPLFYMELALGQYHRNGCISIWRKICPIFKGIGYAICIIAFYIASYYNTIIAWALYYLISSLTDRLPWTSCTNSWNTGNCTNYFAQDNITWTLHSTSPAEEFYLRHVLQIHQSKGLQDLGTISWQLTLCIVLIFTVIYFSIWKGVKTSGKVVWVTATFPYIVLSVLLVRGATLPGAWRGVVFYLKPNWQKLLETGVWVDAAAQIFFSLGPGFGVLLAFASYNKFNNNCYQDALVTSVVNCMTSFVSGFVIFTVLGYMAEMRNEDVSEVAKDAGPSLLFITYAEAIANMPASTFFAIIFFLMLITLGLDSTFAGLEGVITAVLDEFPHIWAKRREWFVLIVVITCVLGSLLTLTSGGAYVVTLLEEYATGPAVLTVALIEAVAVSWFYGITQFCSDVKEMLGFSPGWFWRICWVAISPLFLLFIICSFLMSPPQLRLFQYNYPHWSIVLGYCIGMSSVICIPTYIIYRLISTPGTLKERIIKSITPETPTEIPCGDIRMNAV

| SMILES | 5-HT (inhibition of reuptake of serotonin, % inhibition) [%] |
| --- | --- |
| COc1ccc(S(=O)(=O)N2CCCCC2COCC(=O)NC2CCC(C(c3ccc(F)cc3)N(C)C)CC2)cc1 (stereo not drawn) [Example 450] | 90 |
| CN(C)C(CCc1ccccc1)C1CCC(CNC(=O)COC2CCCCC2N(C)S(=O)(=O)c2ccc(Cl)c(Cl)c2)CC1 (stereo not drawn) [Example 451] | 84 |
| Cc1ccc(S(=O)(=O)N(C)CCOCC(=O)NCC2CCC(C(CCc3ccccc3)N(C)C)CC2)cc1 (stereo not drawn) [Example 452] | 88 |
| COc1cc(C)c(S(=O)(=O)N2CCC(OCC(=O)NC3CCC(C(c4ccc(F)cc4)N(C)C)CC3)CC2)c(C)c1C (stereo not drawn) [Example 454] | 95 |
| CN(C)C(c1ccc(F)cc1)C1CCC(CCNC(=O)COC2CCN(S(=O)(=O)c3ccc(Cl)cc3Cl)C2)CC1 (stereo not drawn) [Example 456] | 88 |
| Cc1ccc(S(=O)(=O)N(C)CCOCC(=O)NCCC2CCC(C(c3ccc(F)cc3)N(C)C)CC2)cc1 (stereo not drawn) [Example 457] | 90 |
| COc1cc(C)c(S(=O)(=O)N(C)CCOCC(=O)NCC2CCC(C(c3ccc(F)cc3)N(C)C)CC2)c(C)c1 (stereo not drawn) [Example 458] | 85 |
| CN(C)C(c1ccc(Cl)cc1)C1CCC(CNC(=O)COCCN(C)S(=O)(=O)c2ccc(Cl)cc2Cl)CC1 (stereo not drawn) [Example 459] | 68 |
| COc1ccc(S(=O)(=O)N(C)CCOCC(=O)NCCC2CCC(C(c3ccc(Cl)cc3)N(C)C)CC2)cc1 (stereo not drawn) [Example 460] | 86 |
| COc1ccc(S(=O)(=O)N2CCCC2COCC(=O)NC2CCC(C(c3ccc(F)cc3)N(C)C)CC2)cc1 (stereo not drawn) [Example 461] | 94 |
| COc1ccc(S(=O)(=O)N2CCCCC2COCC(=O)NCCC2CCC(C(c3ccc(F)cc3)N(C)C)CC2)cc1OC (stereo not drawn) [Example 462] | 90 |
| CN(C)C(c1ccc(F)cc1)C1CCC(NC(=O)COC2CCN(S(=O)(=O)c3ccccc3)C2)CC1 (stereo not drawn) [Example 463] | 97 |
| CN(C)C(c1ccc(F)cc1)C1CCC(CCNC(=O)COC2CCN(S(=O)(=O)c3ccc(Cl)cc3)C2)CC1 (stereo not drawn) [Example 464] | 88 |
| CN(C)C(c1ccc(F)cc1)C1CCC(CCNC(=O)COC2CCN(S(=O)(=O)c3cccc(C(F)(F)F)c3)C2)CC1 (stereo not drawn) [Example 466] | 89 |
| COc1cc(C)c(S(=O)(=O)N2CCC(OCC(=O)NCCC3CCC(C(c4ccc(F)cc4)N(C)C)CC3)C2)c(C)c1C (stereo not drawn) [Example 467] | 95 |
| COc1cc(C)c(S(=O)(=O)N2CCCC(OCC(=O)NCCC3CCC(C(c4ccc(F)cc4)N(C)C)CC3)C2)c(C)c1C (stereo not drawn) [Example 468] | 95 |
| COc1ccc(S(=O)(=O)N2CCCCC2COCC(=O)NCC2CCC(C(CCc3ccccc3)N(C)C)CC2)cc1 (stereo not drawn) [Example 469] | 87 |
| CN(C)C(c1ccc(F)cc1)C1CCC(CCNC(=O)COCCC2CCN(S(=O)(=O)c3ccccc3)CC2)CC1 (stereo not drawn) [Example 470] | 82 |
| CN(C)C(c1ccc(Cl)cc1)C1CCC(CNC(=O)COC2CCN(S(=O)(=O)c3ccccc3)CC2)CC1 (stereo not drawn) [Example 471] | 94 |
| COc1cc(C)c(S(=O)(=O)N2CCC(OCC(=O)NCCC3CCC(C(c4ccc(Cl)cc4)N(C)C)CC3)CC2)c(C)c1C (stereo not drawn) [Example 472] | 95 |

| SMILES | 5-HT (inhibition of reuptake of serotonin, % inhibition) [%] |
| --- | --- |
| COc1cc(C)c(S(=O)(=O)N(CCOCC(=O)NCC2CCC(C(c3ccc(Cl)cc3)N(C)C)CC2)Cc2ccccc2)c(C)c1 (stereo not drawn) [Example 473] | 64 |
| COc1ccc(S(=O)(=O)N2CCCCC2COCC(=O)NCCC2CCC(C(c3ccc(Cl)cc3)N(C)C)CC2)c(OC)c1 (stereo not drawn) [Example 474] | 88 |
| Cc1cc(C)c(S(=O)(=O)N2CCC(OCC(=O)NCC3CCC(C(CCc4ccccc4)N(C)C)CC3)C2)c(C)c1 (stereo not drawn) [Example 475] | 87 |
| CN(C)C(c1cccc(F)c1)C1CCC(CNC(=O)COC2CCN(S(=O)(=O)c3ccccc3)CC2)CC1 (stereo not drawn) [Example 477] | 95 |
| CN(C)C(c1ccc(F)cc1)C1CCC(NC(=O)COCC2CCCN(S(=O)(=O)c3ccccc3)C2)CC1 (stereo not drawn) [Example 478] | 97 |
| CN(C)C(c1ccc(F)cc1)C1CCC(CCNC(=O)COCC2CCCN(S(=O)(=O)c3ccccc3)C2)CC1 (stereo not drawn) [Example 479] | 97 |
| COc1cc(C)c(S(=O)(=O)N2CCC(OCC(=O)NCCC3CCC(C(c4ccc(F)cc4)N(C)C)CC3)CC2)c(C)c1C (stereo not drawn) [Example 480] | 98 |
| COc1cc(C)c(S(=O)(=O)N2CCC(CCOCC(=O)NCC3CCC(C(c4ccc(F)cc4)N(C)C)CC3)CC2)c(C)c1C (stereo not drawn) [Example 481] | 88 |
| COc1ccc(S(=O)(=O)N(C)CCOCC(=O)NCCC2CCC(C(c3ccc(F)cc3)N(C)C)CC2)cc1OC (stereo not drawn) [Example 484] | 96 |
| COc1cc(C)c(S(=O)(=O)N2CCCC(OCC(=O)NCCC3CCC(C(c4ccc(Cl)cc4)N(C)C)CC3)C2)c(C)c1C (stereo not drawn) [Example 485] | 92 |
| CN(C)C(c1ccc(F)cc1)C1CCC(CCNC(=O)COCCN(C)S(=O)(=O)c2ccc(F)cc2)CC1 (stereo not drawn) [Example 487] | 101 |
| CN(C)C(c1ccc(F)cc1)C1CCC(CNC(=O)COC2CCCN(S(=O)(=O)c3ccccc3)C2)CC1 (stereo not drawn) [Example 488] | 94 |
| CN(C)C(c1ccc(F)cc1)C1CCC(CCNC(=O)COCCN(Cc2ccccc2)S(=O)(=O)c2ccccc2)CC1 (stereo not drawn) [Example 489] | 97 |
| Cc1cc(C)c(S(=O)(=O)N(C)CCOCC(=O)NC2CCC(C(c3ccc(F)cc3)N(C)C)CC2)c(C)c1 (stereo not drawn) [Example 490] | 86 |
| Cc1ccc(S(=O)(=O)N2CCC(OCC(=O)NCCC3CCC(C(c4ccc(F)cc4)N(C)C)CC3)C2)cc1 (stereo not drawn) [Example 491] | 90 |
| COc1cc(C)c(S(=O)(=O)N2CCC(OCC(=O)NCCC3CCC(C(c4ccc(Cl)cc4)N(C)C)CC3)C2)c(C)c1 (stereo not drawn) [Example 492] | 97 |
| CN(C)C(c1ccc(F)cc1)C1CCC(CCNC(=O)COCCN2CCN(S(=O)(=O)c3ccccc3)CC2)CC1 (stereo not drawn) [Example 493] | 96 |
| COc1cc(C)c(S(=O)(=O)N(CCOCC(=O)NCC2CCC(C(c3ccc(F)cc3)N(C)C)CC2)Cc2ccccc2)c(C)c1 (stereo not drawn) [Example 494] | 89 |
| CN(C)C(CCc1ccccc1)C1CCC(CNC(=O)COC2CCN(S(=O)(=O)c3ccc(Cl)cc3Cl)C2)CC1 (stereo not drawn) [Example 496] | 89 |
